What follows are molecules tested against Acetylcholinesterase (Homo sapiens, UniProt P22303).
Acetylcholinesterase, sequence (P22303 whole entry): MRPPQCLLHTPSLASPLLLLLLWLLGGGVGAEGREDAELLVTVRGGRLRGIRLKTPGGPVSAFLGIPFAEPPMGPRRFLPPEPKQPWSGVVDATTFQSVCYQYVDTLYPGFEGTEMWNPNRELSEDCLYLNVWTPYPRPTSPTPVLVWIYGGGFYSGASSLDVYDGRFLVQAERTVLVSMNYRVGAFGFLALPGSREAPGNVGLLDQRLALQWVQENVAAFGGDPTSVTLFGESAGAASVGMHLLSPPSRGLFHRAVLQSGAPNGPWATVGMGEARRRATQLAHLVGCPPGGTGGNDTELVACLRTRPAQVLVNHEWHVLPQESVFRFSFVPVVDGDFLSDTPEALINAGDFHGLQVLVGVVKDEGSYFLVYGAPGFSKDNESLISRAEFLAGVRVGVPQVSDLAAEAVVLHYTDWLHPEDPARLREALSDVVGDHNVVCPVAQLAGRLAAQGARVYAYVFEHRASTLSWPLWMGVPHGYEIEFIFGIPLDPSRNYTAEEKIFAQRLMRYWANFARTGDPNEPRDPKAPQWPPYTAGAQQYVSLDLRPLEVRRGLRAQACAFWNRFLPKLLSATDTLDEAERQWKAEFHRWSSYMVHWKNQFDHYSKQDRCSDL
In the case of `O=C(c1ccccc1)N(CCC1CCN(Cc2ccccc2)CC1)c1ccccc1`, the IC50 is reported as 0.035 µM. `c1ccc(-c2ccc(NCCCN3CCOCC3)nn2)cc1` showed an IC50 of 410 µM. For `CCN1CCC2c3cc(OC(=O)NC)ccc3CC21` (stereo unspecified), the IC50 was 0.253 µM. `CCCCN1CCc2cc(C(=O)CCC3CCN(Cc4ccccc4)CC3)ccc21` gave an IC50 of 0.029 µM. `O=C(Nc1cccc(C2=NCCN2)c1)Nc1cccc(C2=NCCN2)c1` [IMIDOCARB] was tested, and the IC50 was 0.59 µM. `O=C(CCC1CCN(Cc2ccccc2F)CC1)c1ccc2c(c1)CCN2` showed an IC50 of 0.043 µM. `CNC(=O)Oc1cccc(CN(C)CCCCCCCOc2ccc3c(c2)OC/C(=C/c2cc(O)c(O)c(O)c2)C3=O)c1` was tested, and the IC50 was 0.00981 µM. For `CNC(=O)Oc1ccc(-c2cn3ccccc3[n+]2C)cc1`, the IC50 was 19.5 µM. In the case of `CCCCCN1CCc2cc(C(=O)CCC3CCN(Cc4ccccc4)CC3)ccc21`, the IC50 is reported as 0.047 µM. `O=C1CNc2cc3onc(CCC4CCN(Cc5ccccc5)CC4)c3cc2C1` was tested, and the IC50 was 0.00048 µM. `CN1CCCc2cc(C(=O)CCC3CCN(Cc4ccccc4)CC3)ccc21` gave an IC50 of 0.024 µM. With `O=C(CCC1CCN(Cc2cccc(Cl)c2)CC1)c1ccc2c(c1)CCN2` the IC50 was 0.059 µM. `c1ccc(-c2ccc(NCCCCCN3Cc4ccccc4CN3)nn2)cc1` showed an IC50 of 10 µM. Work on `CCCCCCCNC(=O)Oc1ccc2c(c1)C1CCN(CCC)C1C2` (stereo unspecified) yielded an IC50 of 0.629 µM. `c1ccc2c(NCCCCCCCCCNc3ccncc3)c3c(nc2c1)CCCC3` gave an IC50 of 0.083 µM. In the case of `O=C(CCc1c[nH]c2ccccc12)NCCCCCNc1c2c(nc3ccccc13)CCCC2`, the IC50 is reported as 0.07 µM. For `CN(C)CCCCCCCCCNc1c2c(nc3ccccc13)CCCC2`, the IC50 was 0.071 µM. Molecule `COc1ccc(N(CCC2CCN(Cc3ccccc3)CC2)C(C)=O)cc1` has an IC50 of 0.7 µM. Molecule `O=[N+]([O-])c1ccc2c(Nc3ccccc3)c3c(nc2c1)CCCC3` has an IC50 of 4.8 µM. For `O=C1c2ccccc2CCC1CC1CCN(c2ccccc2)CC1` (stereo unspecified), the IC50 was 2.1 µM. `CC(=O)N(CCC1CCN(Cc2ccccc2)CC1)c1ccccc1` showed an IC50 of 0.052 µM. Work on `CC1Cc2c(nc3ccccc3c2N)C1(C)O` (stereo unspecified) yielded an IC50 of 134 µM. Work on `CN(CCCNc1ccc(-c2ccccc2)nn1)Cc1ccccc1` yielded an IC50 of 13 µM. For `CN(CCOCCNC(=S)Nc1ccc(OC(F)(F)F)cc1)Cc1ccccc1`, the IC50 was 1 µM. Molecule `CC(=O)N(CCC1CCN(Cc2ccccc2)CC1)c1cccc(F)c1` has an IC50 of 0.065 µM. `Cc1ccc2nc3c(c(Nc4ccccc4)c2c1)CCCC3` showed an IC50 of 3.7 µM. For `Cn1cc(C(=O)NCCCCCCCNc2c3c(nc4cc(Cl)ccc24)CCCC3)c2ccccc21`, the IC50 was 0.0109 µM. For `CNC(=O)Oc1cccc(-c2cn3ccccc3[n+]2C)c1`, the IC50 was 0.35 µM. `COc1cc(N)c(Cl)cc1C(=O)NC1CCN(Cc2ccccc2)CC1` [CLEBOPRIDE] gave an IC50 of 0.89 µM. Work on `CN(CCOCCNC(=S)NC1CCCCC1)Cc1ccccc1` yielded an IC50 of 1.4 µM. Work on `CCCCCCCNC(=O)Oc1ccc2c(c1)[C@]1(C)CCN(CCC)[C@@H]1C2` yielded an IC50 of 0.093 µM. For `O=C(CCC1CCN(Cc2ccccc2)CC1)c1ccc2c(c1)NCC2`, the IC50 was 0.113 µM. `O=C(NCCCCCCNc1c2c(nc3cc(Cl)ccc13)CCCC2)c1c[nH]c2ccccc12` was tested, and the IC50 was 0.033 µM. Work on `c1ccc(CN2CCC(CNc3nsc4ccccc34)CC2)cc1` yielded an IC50 of 0.099 µM. For `Nc1c2c(nc3ccccc13)-c1ccccc1NCC2`, the IC50 was 69.4 µM. Molecule `O=C(CCc1c[nH]c2ccccc12)NCCCCCCCCNc1c2c(nc3cc(Cl)ccc13)CCCC2` has an IC50 of 0.0005 µM. Work on `O=C(CCC1CCN(Cc2ccccc2)CC1)c1ccc2c(c1)CCN2c1ccccc1` yielded an IC50 of 0.068 µM. For `c1ccc2c(NCCCCCCNc3c4c(nc5ncccc35)CCCCC4)c3c(nc2c1)CCCCC3`, the IC50 was 0.0025 µM. In the case of `c1ccc(-c2ccc(NCCN3CCOCC3)nn2)cc1`, the IC50 is reported as 1000 µM. `Nc1c2c(nc3ccccc13)CCCc1ccccc1-2` showed an IC50 of 38.2 µM. For `CCCCCCNC(=O)Oc1ccc2c(c1)C1CCN(CCC)C1C2` (stereo unspecified), the IC50 was 0.546 µM. In the case of `O=C(CCC1CCN(Cc2ccccc2)CC1)c1ccc2c(c1)CCCCN2`, the IC50 is reported as 0.125 µM. Work on `CCCNC(=O)Oc1ccc2c(c1)C1CCN(CC)C1C2` (stereo unspecified) yielded an IC50 of 2.19 µM. For `Cc1cccc2n1cc(-c1ccc(OC(=O)N(C)C)cc1)[n+]2C`, the IC50 was 1.3 µM. In the case of `CN(C)C(=O)Oc1cccc(-c2cn3ccccc3[n+]2C)c1`, the IC50 is reported as 7.1 µM. `O=C(CCC1CCN(Cc2ccccc2)CC1)c1ccc2c(c1)NCCC2` showed an IC50 of 0.164 µM. `O=C(NCCCCCCCCNc1c2c(nc3cc(Cl)ccc13)CCCC2)c1c[nH]c2ccccc12` gave an IC50 of 0.046 µM. Molecule `c1ccc2c(NCCCCCCCCCCNc3ccncc3)c3c(nc2c1)CCCC3` has an IC50 of 0.176 µM. Work on `CN(CCOCCNC(=S)NC(=O)c1ccc2c(c1)C(=O)c1ccccc1C2=O)Cc1ccccc1` yielded an IC50 of 0.006 µM. `O=C(CCC1CCN(Cc2ccccc2)CC1)c1ccc2c(c1)N(c1ccccc1)CCC2` showed an IC50 of 1.49 µM. For `COc1ccc2c(c1)C(=O)N(CCC1CCN(Cc3ccccc3)CC1)C2=O`, the IC50 was 0.008 µM. Molecule `CNC(=O)Oc1cccc(CN(C)CCCCCCCOc2ccc3c(c2)C/C(=C\c2cc(O)c(O)c(O)c2)C3=O)c1` has an IC50 of 0.0018 µM. `O=C(/C=C/c1c[nH]c2ccccc12)NCCCCCCNc1c2c(nc3cc(Cl)ccc13)CCCC2` was tested, and the IC50 was 0.018 µM. In the case of `CNC(=O)Oc1cccc(CN(C)CCCCCCCOc2ccc3c(c2)O/C(=C\c2cccc4ccccc24)C3=O)c1`, the IC50 is reported as 0.00209 µM. With `O=c1c2ccccc2ccn1CCC1CCN(Cc2ccccc2)CC1` the IC50 was 1.1 µM. In the case of `CCCCCCNC(=O)Oc1cccc(CN(CC)CCCOc2ccc3c(=O)c4ccccc4oc3c2)c1`, the IC50 is reported as 0.16 µM. `O=C1c2ccc([N+](=O)[O-])cc2C(=O)N1CCC1CCN(Cc2ccccc2)CC1` was tested, and the IC50 was 0.0125 µM. `CN(CCCNC(=O)CCc1c[nH]c2ccccc12)CCCNc1c2c(nc3ccccc13)CCCC2` gave an IC50 of 0.147 µM. `CCCCCCNC(=O)Oc1cccc(CN(C)CCCOc2ccc3c(=O)c4cccnc4oc3c2)c1` showed an IC50 of 0.042 µM. `O=C(C1CCCCC1)N(CCC1CCN(Cc2ccccc2)CC1)c1ccccc1` gave an IC50 of 9.4 µM. Work on `Nc1c2c(nc3ccccc13)CCC2` yielded an IC50 of 0.056 µM. In the case of `CN(C)CCCCCCCNc1c2c(nc3ccccc13)CCCC2`, the IC50 is reported as 0.052 µM. For `COc1ccccc1CN(C)CCCCCC(=O)N(C)CCCCCCCCN(C)C(=O)CCCCCN(C)Cc1ccccc1OC` [CAPROCTAMINE], the IC50 was 0.104 µM. `Nc1c2c(nc3ccccc13)-c1ccccc1NCCC2` showed an IC50 of 391 µM. Work on `CCN(CCOCCNC(=O)NCc1ccccc1)CC1CCCCC1` yielded an IC50 of 10 µM. `c1cnc2nc3c(c(NCCCCCCCNc4c5c(nc6ncccc46)CCCC5)c2c1)CCCC3` was tested, and the IC50 was 0.0013 µM. `c1ccc(-c2ncc(NCN3CCCCC3)nn2)cc1` gave an IC50 of 57 µM. For `O=C(CCC1CCN(Cc2ccccc2)CC1)c1ccc2c(c1)NCCCCC2`, the IC50 was 0.127 µM. `CCCCCCNC(=O)Oc1ccc2c(c1)[C@]1(C)CCN(C)[C@@H]1C2` was tested, and the IC50 was 0.01 µM. `CN(CCOCCNC(=S)NC(=O)c1ccccc1)C1CCCCC1` gave an IC50 of 0.013 µM. `CN(CCOCCNC(=S)Nc1ccccn1)Cc1ccccc1` showed an IC50 of 4 µM. `CCN1CC[C@@]2(C)c3cc(OC(=O)NC(C)c4ccccc4)ccc3C[C@@H]12` (stereo partly specified) was tested, and the IC50 was 1.33 µM. `CC(=O)N(C)CCC1CCN(Cc2ccccc2)CC1` gave an IC50 of 0.66 µM. With `c1ccc(-c2ccc(NCN3CCCCC3)nc2)cc1` the IC50 was 13 µM. `O=C(CCc1c[nH]c2ccccc12)NCCCCCCCCCNc1c2c(nc3cc(Cl)ccc13)CCCC2` was tested, and the IC50 was […]. Work on `NCCCCCCCCCCCCNc1c2c(nc3ccccc13)CCCC2` yielded an IC50 of 0.18 µM. Molecule `CN(C)C(=O)Oc1ccc(-c2cn3c(NC=O)cccc3[n+]2C)cc1` has an IC50 of 1.2 µM. In the case of `COc1ccc(C(=O)N(CCC2CCN(Cc3ccccc3)CC2)c2ccccc2)cc1`, the IC50 is reported as 0.59 µM. `c1ccc(-c2ccc(NCCN3CCCCC3)nn2)cc1` showed an IC50 of 13 µM. Work on `Nc1cccc2c1C(=O)N(CCC1CCN(Cc3ccccc3)CC1)C2=O` yielded an IC50 of 0.011 µM. With `FC(F)(F)c1cc(-c2ccccc2)nnc1NCCN1CCOCC1` the IC50 was 740 µM.
